From US6160004A, “C-10 carbon-substituted artemisinin-like trioxane compounds having antimalarial, antiproliferative and antitumor activities” (priority 1998, dated 2000)

Assays:
[1] = test system: 786-0; assay: cells; assay type: cell-based; details: Homo sapiens, 786-0, renal cancer, 48 h
[2] = test system: MDA-MB231/ATCC; assay: cells; assay type: cell-based; details: Homo sapiens, MDA-MB-231, breast cancer, 48 h
[3] = test system: ACHN; assay: NCI 60 cell line panel screening assay (SRB), ACHN; assay type: cell-based; details: Homo sapiens, renal cancer, 48 h
[4] = test system: A549/ATCC; assay: NCI 60 cell line panel screening assay (SRB), A549/ATCC; assay type: cell-based; details: Homo sapiens, non-small cell lung cancer, 48 h, read-out: Log10 GI50 (converted)
[5] = test system: SF-295; assay: cells; assay type: cell-based; details: Homo sapiens, SF-295, CNS cancer, 48 h
[6] = test system: COLO 205; assay: NCI 60 cell line panel screening assay (SRB), COLO 205; assay type: cell-based; details: Homo sapiens
[7] = test system: OVCAR-3; assay: cells; assay type: cell-based; details: Homo sapiens
[8] = test system: HL-60(TB); assay: cells; assay type: cell-based; details: Homo sapiens
[9] = test system: CAKI-1; assay: NCI 60 cell line panel screening assay (SRB), CAKI-1; assay type: cell-based; details: Homo sapiens
[10] = test system: HS 578T; assay: cells; assay type: cell-based; details: Homo sapiens, HS 578T, breast cancer, 48 h
[11] = test system: SNB-19; assay: cells; assay type: cell-based; details: Homo sapiens, SNB-19, CNS cancer, 48 h
[12] = test system: MOLT-4; details: MOLT-4, FIG. 6
[13] = test system: KM12; assay: cells; assay type: cell-based; details: Homo sapiens, KM12, colon cancer, 48 h
[14] = test system: MDA-MB435; assay: NCI 60 cell line panel screening assay (SRB), MDA-MB435; assay type: cell-based; details: Homo sapiens
[15] = test system: MDA-N; assay: NCI 60 cell line panel screening assay (SRB), MDA-N; assay type: cell-based; details: Homo sapiens, breast cancer, 48 h, read-out: Log10 GI50 (converted)
[16] = test system: HOP-62; assay: cells; assay type: cell-based; details: Homo sapiens, HOP-62, non-small cell lung cancer, 48 h
[17] = test system: NCI-H522; assay: cells; assay type: cell-based; details: Homo sapiens
[18] = test system: MCF7/ADR-RES; assay: cells; assay type: cell-based; details: Homo sapiens, MCF7/ADR-RES, breast cancer, 48 h
[19] = test system: LOX IMVI; assay: cells; assay type: cell-based; details: Homo sapiens, melanoma, 48 h
[20] = test system: U251; assay: cells; assay type: cell-based; details: Homo sapiens, U-251, U251, CNS cancer, 48 h
[21] = test system: SF-539; assay: cells; assay type: cell-based; details: Homo sapiens, SF-539, CNS cancer, 48 h
[22] = test system: OVCAR-4; assay: cells; assay type: cell-based; details: Homo sapiens
[23] = test system: SK-MEL-2; assay: cells; assay type: cell-based; details: Homo sapiens, SK-MEL-2, melanoma, 48 h
[24] = test system: EKVX; assay: NCI 60 cell line panel screening assay (SRB), EKVX; assay type: cell-based; details: Homo sapiens, non-small cell lung cancer, 48 h, read-out: Log10 GI50 (converted)
[25] = test system: MALME-3M; assay: cells; assay type: cell-based; details: Homo sapiens, 48 h
[26] = test system: chloroquine-sensitive P. falciparum (NF54); assay: In vitro antimalarial activity ([3H]hypoxanthine incorporation); assay type: cell-based
[27] = test system: UO-31; assay: NCI 60 cell line panel screening assay (SRB), UO-31; assay type: cell-based; details: Homo sapiens, UO-31, renal cancer, 48 h
[28] = test system: MCF7; assay: cells; assay type: cell-based; details: Homo sapiens; MCF7, breast cancer, 48 h; read-out: Log10 LC50 (converted)
[29] = test system: OVCAR-8; assay: cells; assay type: cell-based; details: Homo sapiens
[30] = test system: NCI-H460; assay: cells; assay type: cell-based; details: Homo sapiens; NCI-H460, non-small cell lung cancer, 48 h; read-out: Log10 GI50 (converted)
[31] = read-out: Log10 GI50 (converted)
[32] = read-out: Log10 LC50 (converted)

CC1CCC2C(C)C(CC(=O)c3cccc(C(=O)CC4OC5OC6(C)CCC7C(C)CCC(C4C)C57OO6)c3)OC3OC4(C)CCC1C32OO4 (centres unmarked) [Dimer 39]
greater than 10^-4 M: concentration for cytostasis (PG 0) [12]
1.9 nM: IC50 ([26]; Plasmodium falciparum, chloroquine-sensitive P. falciparum NF54, in vitro)
> 100 µM: GI50 [1, 31] | CC50 [1, 32] | IC (TGI) ([1]; read-out: Log10 TGI) | GI50 [2, 31] | CC50 [2, 32] | GI50 [3, 31] | IC (TGI) ([3]; read-out: Log10 TGI) | GI50 [4] | GI50 [5, 31] | CC50 [5, 32] | CC50 ([6]; COLO 205, 48 h, read-out: Log10 LC50 (converted)) | GI50 ([6]; COLO 205, colon cancer, 48 h, read-out: Log10 GI50 (converted)) | IC (TGI) ([7]; OVCAR-3, 48 h, read-out: Log10 TGI) | GI50 ([7]; OVCAR-3, ovarian cancer, 48 h, read-out: Log10 GI50 (converted)) | CC50 ([7]; OVCAR-3, ovarian cancer, 48 h, read-out: Log10 LC50 (converted)) | CC50 ([8]; HL-60, 48 h, read-out: Log10 LC50 (converted)) | GI50 ([8]; HL-60(TB), leukemia, 48 h, read-out: Log10 GI50 (converted)) | IC (TGI) ([8]; HL-60(TB), leukemia, 48 h, read-out: Log10 TGI) | CC50 ([9]; CAKI-1, 48 h, read-out: Log10 LC50 (converted)) | GI50 ([9]; CAKI-1, renal cancer, 48 h, read-out: Log10 GI50 (converted)) | IC (TGI) ([9]; CAKI-1, renal cancer, 48 h, read-out: Log10 TGI (converted)) | GI50 [10, 31] | CC50 [10, 32] | GI50 [11, 31] | CC50 [11, 32] | IC (TGI) ([11]; read-out: Log10 TGI) | GI50 [13, 31] | CC50 [13, 32] | CC50 ([14]; MDA-MB-435, 48 h, read-out: Log10 LC50 (converted)) | GI50 ([14]; MDA-MB-435, printed MDA-MBA35, breast cancer, 48 h, read-out: Log10 GI50 (converted)) | GI50 [15] | GI50 [16, 31] | LC50 [16, 32] | CC50 ([17]; NCI-H522, 48 h, read-out: Log10 LC50 (converted)) | GI50 ([17]; NCI-H522, non-small cell lung cancer, 48 h, read-out: Log10 GI50 (converted)) | GI50 [18, 31] | CC50 [18, 32] | GI50 [19, 31] | CC50 [19, 32] | IC (TGI) ([19]; read-out: Log10 TGI (converted)) | GI50 [20, 31] | CC50 [20, 32] | GI50 [21, 31] | CC50 [21, 32] | IC (TGI) ([22]; OVCAR-4, 48 h, read-out: Log10 TGI) | GI50 ([22]; OVCAR-4, ovarian cancer, 48 h, read-out: Log10 GI50 (converted)) | CC50 ([22]; OVCAR-4, ovarian cancer, 48 h, read-out: Log10 LC50 (converted)) | GI50 [23, 31] | CC50 [23, 32] | IC (TGI) ([23]; read-out: Log10 TGI) | GI50 [24] | IC (TGI) ([25]; Malme-3M, read-out: Log10 TGI) | GI50 ([25]; MALME-3M, melanoma, read-out: Log10 GI50 (converted)) | LC50 (50% lethal concentration) ([25]; MALME-3M, melanoma, read-out: Log10 LC50 (converted)) | GI50 [27, 31] | CC50 [27, 32] | IC (TGI) ([27]; read-out: Log10 TGI) | CC50 [28] | IC (TGI) ([29]; OVCAR-8, 48 h, read-out: Log10 TGI) | GI50 ([29]; OVCAR-8, ovarian cancer, 48 h, read-out: Log10 GI50 (converted)) | CC50 ([29]; OVCAR-8, ovarian cancer, 48 h, read-out: Log10 LC50 (converted)) | GI50 [30]
more potent than artemisinin: in vitro antimalarial potency relative to artemisinin ([26]; P. falciparum NF54)
